In PubChem BioAssay (NCI) one finds TGI data, which are given here for five compounds.

Some test systems named below: CAKI-1 renal; EKVX NSCLC; HCT-116 colon; HCT-15 colon; HL-60(TB) leukemia; HT29 colon; K-562 leukemia; KM12 colon; M14 melanoma; RPMI-8226 leukemia; SF-295 CNS; SK-MEL-28 melanoma; SNB-19 CNS; SR leukemia; TK-10 renal; U251 CNS; UACC-62 melanoma; UO-31 renal; BT-549 breast; PC-3 prostate.
Common to all, as to test: growth of human tumour cells (NCI), 48 h

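Assay format: 96-well plates, 48-hour exposure. Definition used: TGI = concentration required for complete inhibition of growth.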

For the compound `COc1ccccc1NC(=O)C(=O)C(C(=O)c1ccccc1F)C1OC(=O)c2ccccc21` (stereo not drawn), the TGI in the experiment on CAKI-1 renal is 86.7 µM; with EKVX NSCLC it was above 100 µM; in the experiment on HCT-116 colon, 44.3 µM; in the experiment with HCT-15 colon, 69.2 µM; in the experiment with HL-60(TB) leukemia it was 56.5 µM; with HT29 colon, 62.5 µM. Further, the TGI in the experiment on K-562 leukemia was above 100 µM; in the experiment on KM12 colon, 64 µM; in the experiment on M14 melanoma, above 100 µM; with RPMI-8226 leukemia it was 69.6 µM; in the experiment with SF-295 CNS, above 100 µM; in the experiment on SK-MEL-28 melanoma it was above 100 µM. The TGI is 64 µM with SNB-19 CNS; 60.7 µM with SR leukemia; above 100 µM with TK-10 renal; 31.1 µM in the experiment with U251 CNS; 34.9 µM in the experiment on UACC-62 melanoma; 98.7 µM with UO-31 renal.

With `COc1nc(Cl)nc(N[C@H](C)c2c3ccccc3cc3ccccc23)n1`, the TGI came to 32.5 µM with BT-549 breast; 25.9 µM with CAKI-1 renal; 29.6 µM in the experiment with EKVX NSCLC; 24.8 µM with HCT-116 colon; 27 µM in the experiment on HCT-15 colon; 58.8 µM in the experiment on HL-60(TB) leukemia. In addition, the TGI with HT29 colon was 31.3 µM; in the experiment on K-562 leukemia, 97.8 µM; in the experiment with KM12 colon, 26.9 µM; with PC-3 prostate, 31.5 µM; in the experiment on RPMI-8226 leukemia, 21.1 µM; with SF-295 CNS, 31 µM. In addition, the TGI was determined as 10.2 µM in the experiment with SK-MEL-28 melanoma; 31.1 µM with SNB-19 CNS; 14.8 µM with TK-10 renal; 31.9 µM in the experiment with U251 CNS; 13.8 µM in the experiment on UACC-62 melanoma; 31.8 µM in the experiment with UO-31 renal.

As to `CCOc1ccc2nc(NC(=O)C(=O)C(C(=O)c3ccccc3F)C3OC(=O)c4ccccc43)sc2c1` (stereo not drawn), the TGI is 75.3 µM in the experiment on CAKI-1 renal; 45.3 µM in the experiment with EKVX NSCLC; 31.8 µM with HCT-116 colon; 38.2 µM in the experiment on HCT-15 colon; 50.1 µM in the experiment with HL-60(TB) leukemia; above 100 µM in the experiment on K-562 leukemia. Further, the TGI in the experiment with KM12 colon stood at 19 µM; with M14 melanoma, 32.5 µM; in the experiment with RPMI-8226 leukemia it was 90 µM; in the experiment with SK-MEL-28 melanoma, 46.5 µM; in the experiment with SNB-19 CNS it was 40.2 µM; with SR leukemia, 55.6 µM. Moreover, the TGI amounted to 90.7 µM with TK-10 renal, 23.8 µM in the experiment on U251 CNS, 27.7 µM in the experiment on UACC-62 melanoma and 33.6 µM in the experiment with UO-31 renal.

As for `C[C@H]1S[C@@H](c2ccc(Cl)cc2Cl)N(NC(=O)c2ccncc2)C1=O`, the TGI in the experiment with BT-549 breast, with CAKI-1 renal, in the experiment with HCT-116 colon, with HCT-15 colon, in the experiment with HL-60(TB) leukemia and in the experiment with HT29 colon was above 100 µM throughout. Also, the TGI in the experiment on K-562 leukemia, with KM12 colon, in the experiment on M14 melanoma, in the experiment with PC-3 prostate, with RPMI-8226 leukemia and in the experiment with SK-MEL-28 melanoma was above 100 µM each time. The TGI in the experiment with SNB-19 CNS, with SR leukemia, in the experiment with U251 CNS, in the experiment on UACC-62 melanoma and in the experiment with UO-31 renal was above 100 µM in each case.

With `COC1/C=C/C(C)C(O)CC(O)/C=C/C(C)C(C(C)C(OC)C(C)CCC(=O)C(C)C(C/C=C/N(C)C=O)OC)OC(=O)/C=C/C=C(\C)CC(OC)CC2=CC(=O)O[C@@H](C(C)C(OC)C1)[C@H]2O` (stereo partly drawn), the TGI in the experiment on BT-549 breast was determined as 1.5 µM; in the experiment with CAKI-1 renal, 0.0192 µM; with EKVX NSCLC, 0.266 µM; in the experiment with HCT-116 colon, 0.00952 µM; in the experiment on HCT-15 colon, 0.0893 µM; in the experiment on HL-60(TB) leukemia it was 0.252 µM. In addition, the TGI in the experiment on HT29 colon is 0.741 µM; with KM12 colon, 1.15 µM; in the experiment with M14 melanoma, below 0.005 µM; in the experiment on PC-3 prostate, 0.131 µM; in the experiment with RPMI-8226 leukemia it was 0.124 µM; with SF-295 CNS, below 0.005 µM. The TGI is 0.155 µM in the experiment on SK-MEL-28 melanoma; 0.155 µM in the experiment with SNB-19 CNS; 24.6 µM in the experiment with SR leukemia; 0.0551 µM in the experiment with TK-10 renal; 0.102 µM in the experiment with U251 CNS; 0.019 µM with UACC-62 melanoma. The compound also displayed a TGI in the experiment with UO-31 renal of 0.0648 µM.
